Source: patent publication US11806364B2, “Method for producing myeloid-derived suppressor cells, myeloid-derived suppressor cells produced thereby, and methods thereof” (Industry-Academic Cooperation Foundation, Yonsei University, priority 2017, dated 2023)

Tests used:
[1] = test system: bone marrow cells; assay: Cytokine applied in place of the TLR agonist, formation of M-MDSCs and dendritic cells; format: cell-based; conditions: day 6; for M-MDSCs are formed and differentiation into dendritic cells is inhibited: 3 method
Excerpt: On day 6 of culture, it was identified whether M-MDSCs and dendritic cells are formed.

[2] = test system: bone marrow cells; assay: Proportion of CD11c+MHC-II+ cells after TLR agonist treatment, wild type; format: cell-based; conditions: C57BL/6 mice, 3 method
Procedure: Additionally, in order to identify whether an effect of inhibiting differentiation into dendritic cells is induced in a MyD88-dependent manner, C57BL/6 mice and C57BL/6 MyD88^−/− mice were treated with a TLR agonist in the same manner as the 3 method in Example 1, to induce differentiation, and then a proportion of CD11c^+MHC-II^+ cells was measured. The results are illustrated in FIGS. 5 and 6.

[3] = test system: bone marrow cells; assay: MDSC subtypes by Gr-1, Ly6G and Ly6C expression; format: cell-based, C57BL/6 mice
Excerpt: As illustrated in Example 3, it can be seen that the cells, which have been induced by differentiation from bone marrow cells after TLR stimulation according to the 3 method in Example 1, are MDSCs. On the other hand, subtypes of the MDSCs may be divided into monocytic-MDSCs (M-MDSCs) and granulocytic-MDSCs (G-MDSCs). Gr-1^high cells mostly correspond to G-MDSCs, and Gr-1^low cells may be classified as M-MDSCs.
Thus, for MDSCs harvested after performing culture for 6 days with a Gr-1 antibody using the 3 method in Example 1, an expression level of Gr-1 was checked. The results are illustrated in FIGS. 9 and 10.
Furthermore, in order to accurately classify subtypes of MDSCs, their expression patterns were identified using Ly6G and Ly6C antibodies.

[4] = test system: bone marrow cells; assay: Ly6G/Ly6C expression patterns in C57BL/6 and MyD88^−/− mice; format: cell-based, C57BL/6 mice and C57BL/6 MyD88^−/− mice; conditions: MyD88 dependence study, 3 method
Procedure: In order to identify whether differentiation into respective MDSCs' subtypes is induced in a MyD88-dependent manner, C57BL/6 mice and C57BL/6 MyD88^−/− mice were treated in the same manner as the 3 method in Example 1, and then expression patterns of Ly6G and Ly6C were identified in the same manner as in Example 4 (FIG. 13).

[5] = test system: bone marrow cells; assay: Differentiation of bone marrow cells with GM-CSF, proportion of CD11c+ cells; format: cell-based, C57BL/6 mice; conditions: for capacity of inhibiting dendritic cells (proportion of CD11c^+ cells): 50 ng/ml, 3 method (initiation of differentiation and day 3), day 6 of culture
Procedure: Whole bone marrow cells in the femurs were harvested from C57BL/6 mice using a bone marrow harvesting needle. The harvested bone marrow cells were washed with PBS and red blood cells (RBCs) were removed using a red blood cell lysis buffer (Sigma Aldrich). The bone marrow cells were dispensed in a 6-well plate (1×10^6 cells/ml; 2 ml/well) and cultured, under a condition of 5% CO2 and 37° C., in complete RPMI 1640 (c-RPMI 1640) medium supplemented with 100 U/mL of penicillin/streptomycin (Lonza, Basel, Switzerland), 10% fetal bovine serum (Lonza), 50 μM mercaptoethanol (Lonza), 0.1 mM non-essential amino acids (Lonza), and GM-CSF (20 ng/mL). […] On day 3 of culture, the bone marrow cells and 1 ml of c-RPMI 1640 medium were added to each well. On day 6 of culture, the cells were collected and stained with Fluorescein-conjugated CD11c mAb to measure a proportion of CD11c^+ cells. […] In addition, in a case where the 3 method is used, proportions of CD11c^+ cells were checked for respective treatment concentrations of each TLR agonist (TLR2 agonist (Pam3)—1, 10, and 50 ng/ml; TLR3 agonist (Poly I:C)—10, 100, and 500 ng/ml; TLR4 agonist (LPS)—1, 10, and 50 ng/ml; TLR7 agonist (imiquimod)—1, 10, and 50 ng/ml; TLR9 agonist (CPG:ODN)—1, 10, and 50 ng/ml).

[6] = test system: bone marrow cells; assay: Phenotypic analysis of cells induced by TLR stimulation; format: cell-based, C57BL/6 mice; conditions: 3 method, culture for 6 days
Excerpt: The results obtained by analyzing phenotypes of cells harvested after treating bone marrow cells with a TLR agonist in the same manner as the 3 method in Example 1 and performing culture for 6 days are illustrated in FIGS. 7 and 8. […] From these expression patterns, it was predictable that the cells induced by differentiation from the bone marrow cells are myeloid-derived suppressor cells (MDSCs).

[7] = test system: bone marrow cells; assay: IL-6 or IL-6 receptor blocker together with TLR9 agonist, proportions of MDSCs and dendritic cells; format: cell-based; conditions: applied together with a TLR9 agonist, 3 method, day 6
Excerpt: In order to evaluate differentiation into M-MDSCs caused by IL-6 and functions of the M-MDSCs, recombinant IL-6 or an IL-6 receptor blocker was applied together with a TLR9 agonist using the 3 method in Example 1, and then the cells were harvested on day 6 of culture. Among the cells harvested according to the respective treatments, proportions of MDSCs and dendritic cells were checked.

[8] = test system: M-MDSCs; assay: Secondary differentiation into dendritic cells of M-MDSCs induced with TLR9 agonist plus IL-6 or IL-6 receptor blocker; format: cell-based; conditions: GM-CSF 5 days; compared with only TLR9 agonist
Procedure: In order to identify whether the M-MDSCs induced according to respective treatments as described above are secondarily differentiated into dendritic cells, culture was performed for 5 days in the same manner as the method of inducing differentiation into dendritic cells in Example 8.

[9] = test system: bone marrow cells; assay: TLR9 agonist on bone marrow cells of type I IFN receptor knockout mice; format: cell-based; conditions: 3 method, day 6
Procedure: Finally, in order to accurately check the function of type I IFN, bone marrow cells harvested from wild-type mice and type I IFN receptor knockout mice were treated with a TLR9 agonist using the 3 method in Example 1; and on day 6 of culture, degree of formation of PDCA-1^+ M-MDSCs and dendritic cells was evaluated.

[10] = test system: bone marrow cells; assay: Cytokines induced at early differentiation stages after TLR stimulation; format: cell-based; conditions: for cytokines induced at early differentiation stages: 8, 18, and 36 hours after stimulation with TLR agonist; for IFN-γ, IL-15, IL-1β, TGF-β, IL-4, IL-12p70, IL-10, and FLT2L induction: not shown by data
Procedure: Hereinafter, experiments were conducted assuming that for respective M-MDSCs induced by differentiation upon treatment with a TLR2 or TLR9 agonist, differences in phenotype, T cell inhibition capacity, regulatory T cell formation capacity, and differentiation into dendritic cells are due to different cytokine secretion induced by each TLR stimulation. Therefore, cytokines induced at early differentiation stages (8, 18, and 36 hours after stimulation with TLR agonist) after treatment of bone marrow cells with a TLR2 or TLR9 agonist were analyzed.

[11] = test system: Ly6C^+ M-MDSCs; assay: Ly6C+ M-MDSCs treated with GM-CSF, proportions of CD11c+ cells; format: cell-based; conditions: Ly6C^+ M-MDSCs of day 6, GM-CSF for 3 days
Procedure: Then, GM-CSF was applied in the same manner as in Example 8 and culture was performed for 3 days. Subsequently, proportions of CD11c^+ cells were checked for the respective treatments.
Then, on day 6 of culture, only Ly6C^+ M-MDSCs were collected. Subsequently, GM-CSF was applied in the same manner as in Example 8 and culture was performed for 3 days. Then, proportions of CD11c^+ cells were checked for the respective treatments.

With CCCCC[C@H](O)/C=C/[C@H]1[C@H](O)CC(=O)[C@@H]1C/C=C\CCCC(=O)O [PGE2] the “M-MDSCs are formed and differentiation into dendritic cells is inhibited” value [1] was “in a concentration-dependent manner”.
In the case of CC(C)Cn1cnc2c(N)nc3ccccc3c21 [TLR7 agonist, imiquimod], the “proportion of CD11c^+MHC-II^+ cells” value [2] is reported as “decreased”, the “Gr-1^high MDSCs” value ([3]; 3 method, 6 days) is reported as “induced at a high level” and the “Ly6C^high M-MDSCs (X4 cells)” value ([3]; Ly6G and Ly6C antibodies) is reported as “induced”. For the same molecule, the “Ly6C^high M-MDSCs (X4 cells)” value [4] was “induced”, the “capacity of inhibiting dendritic cells (proportion of CD11c^+ cells)” value (from here on “capacity of inhibiting dendritic cells”) [5] was “strongly induced” and the “B220, another marker of pDCs” value [6] was “no significant difference”. For the same molecule, the “PDCA-1, a marker of plasmacytoid dendritic cells” value [6] was “highly induced”.
In the case of IFN-α, the “M-MDSCs are formed and differentiation into dendritic cells is inhibited” value [1] is reported as “in a concentration-dependent manner”.
IL-6: recombinant IL-6 protein was tested, and the “differentiation into PDCA-1^+ M-MDSCs” value [7] was “increased”, the “differentiation into dendritic cells” value [7] was “further decreased” and the “degree of differentiation of M-MDSCs into dendritic cells” value [8] was “remarkably decreased”. For the same molecule, the “M-MDSCs are formed and differentiation into dendritic cells is inhibited” value [1] was “in a concentration-dependent manner” and the “M-MDSCs having the phenotype CD11c^−CD11b^+Ly6G^− Ly6C^+PDCA-1^−” value [1] was “induced in large quantities”.
For ODN1826 [TLR9 agonist], the “induction of MDSCs” value [9] was “not induced”, the “proportion of CD11c^+MHC-II^+ cells” value [2] was “decreased” and the “Gr-1^high MDSCs” value ([3]; 3 method, 6 days) was “induced at a high level”. The “Ly6C^high M-MDSCs (X4 cells)” value ([3]; Ly6G and Ly6C antibodies) was “induced”, the “Ly6C^high M-MDSCs (X4 cells)” value [4] was “induced” and the “cytokines induced at early differentiation stages” value [10] was “TNF-α, IL-6, IFN-α, and IFN-β”. The “IFN-γ, IL-15, IL-1β, TGF-β, IL-4, IL-12p70, IL-10, and FLT2L induction” value [10] was “not induced”, the “capacity of inhibiting dendritic cells” value [5] was “strongly induced” and the “B220, another marker of pDCs” value [6] was “no significant difference”. For the same molecule, the “PDCA-1, a marker of plasmacytoid dendritic cells” value [6] was “highly induced”.
Pam3CSK4 [TLR2 agonist] was tested, and the “proportion of CD11c^+MHC-II^+ cells” value [2] was “decreased”, the “differentiation into dendritic cells (proportions of CD11c^+ cells)” value [11] was “hardly induced” and the “Gr-1^low MDSCs” value ([3]; 3 method, 6 days) was “induced at a high level”. The “Ly6C^int M-MDSCs (X3 cells)” value ([3]; Ly6G and Ly6C antibodies) was “induced”, the “Ly6C^int M-MDSCs (X3 cells)” value [4] was “induced” and the “cytokines induced at early differentiation stages” value [10] was “TNF-α, IL-6, and PGE2”. The IL-6 induction ([10]; as compared with a case of being treated with the TLR9 agonist) was “remarkably induced”, the “IFN-γ, IL-15, IL-1β, TGF-β, IL-4, IL-12p70, IL-10, and FLT2L induction” value [10] was “not induced” and the “capacity of inhibiting dendritic cells” value [5] was “strongly induced”.
With poly I:C [TLR3 agonist] the “inhibition of differentiation into dendritic cells (proportions of CD11c^+ cells for respective treatment concentrations)” value ([5]; 3 method, 1, 10, 50 ng/ml (TLR3 agonist 10, 100, 500 ng/ml)) was “not observed”.
